The target of the assay is T1, β-secretase (BACE) (Homo sapiens, UniProt P56817).
T1 construct: purchased Panvera
The experiment in a line: BACE FS1 Assay (% Inhibition and Ki). As to conditions: FS1 substrate; for inhibition at 0.3 µM / % Inhibition (FS) @ 0.3 μM: 0.3 μM test compound; for inhibition at 0.3 µM: read-out: % Inhibition (FS) @ 0.3 μM; for inhibition at 1 µM: read-out: % Inhibition (FS) @ 1 μM; for inhibition at 3 µM: read-out: % Inhibition (FS) @ 3 μM. Type of assay: biochemical. As to the method:
BACE FS1 Assay (% Inhibition and Ki)
The following reagents were used in this assay: sodium acetate, PEG8000 (Sigma), DMSO, HEPES, FS1 substrate [R(AedensE)[…]-(DabcylK)R], β-secretase (BACE) (Panvera), and 96-well plate (HE microplate, Molecular Devices).
The following assay buffers were prepared and used in this assay: (1) enzyme assay buffer (0.05 M sodium acetate, pH5, 0.1% PEG8000 (w/v)), (2) substrate assay buffer (0.05 M sodium acetate, pH5), and (3) compound vehicle (30% DMSO in 50 mM HEPES, pH 7.4).
The FS1-substrate stock solution was prepared in DMSO as a 10 mg/mL solution. The FS1-substrate working solution was prepared by diluting the 10 mg/mL stock solution with substrate assay buffer to a final concentration of 300 μg/mL. The β-secretase (BACE) working solution was prepared by diluting a 0.83 mg/mL BACE stock solution with enzyme assay buffer to a final concentration of 4 μg/mL.
Test compounds were dissolved in DMSO to 10 mM. Compounds were further diluted in vehicle to various concentrations in the range of 405 μM to 4.05 μM (13.5× final compound concentration in screening plate).
The screening procedure for this assay was as follows: 15 μL of BACE working solution was pipetted into each well of a 96-well plate. To each well was then pipetted 2 μL of test compound at the selected concentration. Test compound and BACE were then mixed with a pipettor and incubated for 20 min at room temperature. To each well was then added 10 μL of the FS1 substrate working solution. The plates were then incubated for 1 hour at room temperature. The fluorescence for each well was then measured on an LJL analyst (Ex 360 nm/Em 530 nm).
The procedure for the blank was as follows. 15 μL of assay buffer was pipetted into each well to be used as a blank control. To each well was then added 2 μL of vehicle and […] of FS1-substrate working solution. The plates were then incubated for 1 hour at room temperature. The fluorescence was measured on an LJL analyst (Ex 360 nm/Em 530 nm).
The procedure for the positive control was as follows: 15 μL of BACE working solution was pipetted into each well to be used as a positive control. To each well was then pipetted 2 μL of vehicle. Vehicle and BACE were then mixed with a pipettor and incubated for 20 min at room temperature. To each well was then added 10 μL of the FS1 substrate working solution. The plates were then incubated for 1 hour at room temperature. The fluorescence (F1) was then measured on an LJL analyst (Ex 360 nm/Em 530 nm).
For test compounds, % inhibition was determined at each concentration as follows:
% Inhibition values of less than 30% were indistinguishable from control are listed as ≦30% in Table 18, below.
For test compounds, measured at multiple concentrations, the measured T0 and T60 values were used to calculate an IC50 value using Graphpad Software (or PIR). Ki inhibition was determined as follows: For each compound concentration and positive control, rate of cleavage of substrate (Vi, where i=compound concentration in μM) was determined as Δ Fluorescence/Δ time (min). Cleavage rates (Vi) were plotted as a function of inhibitor concentration in μM [I]. […]

Broadly, the inhibition is the drop in the measured response relative to a control, in per cent. One may read the Ki as the dissociation constant of the complex between target and ligand, obtained from inhibition or displacement.

Several values for one entry are separate records, joined by “and”; a condition that tells them apart may be missing. Identical values can stand only once.

T1 sequence (P56817 46-501): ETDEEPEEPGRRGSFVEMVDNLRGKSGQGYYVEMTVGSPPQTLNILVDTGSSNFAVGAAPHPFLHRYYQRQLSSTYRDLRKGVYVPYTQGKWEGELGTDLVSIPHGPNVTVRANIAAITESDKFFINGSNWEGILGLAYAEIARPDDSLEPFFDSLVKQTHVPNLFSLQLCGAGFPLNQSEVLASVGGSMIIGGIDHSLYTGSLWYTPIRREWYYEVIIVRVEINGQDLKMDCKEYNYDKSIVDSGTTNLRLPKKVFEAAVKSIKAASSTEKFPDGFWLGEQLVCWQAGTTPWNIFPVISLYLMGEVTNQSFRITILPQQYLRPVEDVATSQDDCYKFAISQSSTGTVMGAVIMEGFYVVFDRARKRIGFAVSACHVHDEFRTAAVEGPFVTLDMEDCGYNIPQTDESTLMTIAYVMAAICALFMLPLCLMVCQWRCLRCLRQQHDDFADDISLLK

With `NC1=Nc2cnc(Oc3ccccc3)cc2CN1CCNC(=O)C1CCCCC1` [Compound 1], the inhibition at 0.3 µM amounted to 75% and the Ki was 166 nM. Also, the inhibition at 1 µM (1 μM test compound) was 102%. Also, the inhibition at 3 µM (3 μM test compound) is 110%.

Regarding `CC(C)(C)OC(=O)NCCN1Cc2cc(Oc3ccccc3)ncc2N=C1N` [Compound 2], the inhibition at 0.3 µM worked out at 70% and the affinity corresponds to a Ki of 91 nM. For the setting “1 μM test compound”, the inhibition at 1 µM was 102%. For the same compound, the inhibition at 3 µM (3 μM test compound) stood at 124%.

As for `COc1ccccc1-c1cc2c(cn1)N=C(N)N([C@@H](CCC(=O)N(C)C1CCCCC1)C1CCCCC1)C2` [Compound 3], the inhibition at 0.3 µM turned out to be 130% and affinity was put at a Ki of 18 nM. Moreover, the inhibition at 1 µM (1 μM test compound) was 132%. Also, the inhibition at 3 µM (3 μM test compound) was found to be 139%.

Turning to `CN(C(=O)CC[C@@H](C1CCCCC1)N1Cc2cc(-c3ccccc3F)ncc2N=C1N)C1CCCCC1` [Compound 4], the inhibition at 0.3 µM amounted to 113% and the affinity, expressed as Ki, was 35 nM. Further, for the setting “1 μM test compound”, the inhibition at 1 µM turned out to be 127%. The inhibition at 3 µM (3 μM test compound) came to 132%.

With `CN(C(=O)CC[C@@H](C1CCCCC1)N1Cc2cc(Oc3ccccc3)ncc2N=C1N)C1CCCCC1` [Compound 5], the inhibition at 0.3 µM amounted to 125% and the Ki came to 25 nM. Moreover, the inhibition at 1 µM (1 μM test compound) was 131%. Moreover, for the setting “3 μM test compound”, the inhibition at 3 µM was 138%.

Consider `NC1=Nc2cnc(Oc3ccccc3)cc2CN1CCCC(=O)NC1C2CC3CC(C2)CC1C3` (centres unmarked) [Compound 6], for which the inhibition at 0.3 µM was 122% and the Ki was found to be 21 nM. Moreover, the inhibition at 1 µM (1 μM test compound) turned out to be 139%. Moreover, under “3 μM test compound”, the inhibition at 3 µM was 138%.

On to `CC(C)C(CCC(=O)N(C)C1CCC(C(=O)O)CC1)N1Cc2cc(Oc3ccccc3)ncc2N=C1N` (centres unmarked) [Compound 8], for which the “% Inhibition (FS) @ 0.3 μM” value came to 121%; the inhibition at 0.3 µM is 106%; the Ki was 27 nM and 16 nM. The “% Inhibition (FS) @ 1 μM” value (1 μM test compound, 1 µM) amounted to 115%. Besides, where the note is “1 μM test compound”, the inhibition at 1 µM amounted to 129%. The “% Inhibition (FS) @ 3 μM” value (3 μM test compound, 3 µM) came to 130%. In addition, the inhibition at 3 µM (3 μM test compound) amounted to 138%.

Take `CC(C)C(CCC(=O)N(CCO)C1CCC(C#N)CC1)N1Cc2cc(Oc3ccccc3)ncc2N=C1N` (centres unmarked) [Compound 10]: the inhibition at 0.3 µM was 55% and the Ki came to 207 nM. For the same compound, the inhibition at 1 µM (1 μM test compound) stood at 80%. In addition, the inhibition at 3 µM (3 μM test compound) was 114%.

Regarding `CC(C)C(CCC(=O)N(C)C1CCC(C#N)CC1)N1Cc2cc(Oc3ccccc3)ncc2N=C1N` (centres unmarked) [Compound 11], the inhibition at 0.3 µM was found to be 47% and the Ki stood at 124 nM. For the same compound, the inhibition at 1 µM (1 μM test compound) is 78%. Further, for the setting “3 μM test compound”, the inhibition at 3 µM was determined as 120%.

For `CC(C)C(CCC(=O)N(CCO)C1CCC(c2nnn[nH]2)CC1)N1Cc2cc(Oc3ccccc3)ncc2N=C1N` (centres unmarked) [Compound 12], the inhibition at 0.3 µM came to 30% and the Ki turned out to be 503 nM. Moreover, the inhibition at 1 µM (1 μM test compound) is 63%. Also, the inhibition at 3 µM (3 μM test compound) amounted to 95%.

Turning to `CC(C)[C@H](CCC(=O)N(C)C1CCC(c2nnn[nH]2)CC1)N1Cc2cc(Oc3ccccc3)ncc2N=C1N` (stereo partly drawn) [Compound 13, 4-(S)-(2-Amino-6-phenoxy-4H-pyrido[3,4-d]pyrimidin-3-yl)-5-methyl-hexanoic acid methyl-[4-(1H-tetrazol-5-yl)-cyclohexyl]-amide], the inhibition at 0.3 µM is 30% and the Ki amounted to 517 nM. The inhibition at 1 µM (1 μM test compound) turned out to be 63%. Besides, for the setting “3 μM test compound”, the inhibition at 3 µM is 87%.

As to `CCOC(=O)C1CCC(N(CCO)C(=O)CCC(C(C)C)N2Cc3cc(Oc4ccccc4)ncc3N=C2N)CC1` (centres unmarked) [Compound 14], the inhibition at 0.3 µM is 11% and the Ki amounted to 241 nM. The inhibition at 1 µM (1 μM test compound) came to 66%. The inhibition at 3 µM (3 μM test compound) came out at 108%.

Consider `CCOC(=O)CCN(C)C(=O)CC[C@@H](C(C)C)N1Cc2cc(Oc3ccccc3)ncc2N=C1N` [Compound 15], for which the inhibition at 0.3 µM was 68% and the Ki is 129 nM. Besides, the inhibition at 1 µM (1 μM test compound) was found to be 94%. Also, the inhibition at 3 µM (3 μM test compound) was found to be 110%.

`CC(C)[C@H](CCC(=O)N(C)CCC(=O)O)N1Cc2cc(Oc3ccccc3)ncc2N=C1N` [Compound 16]: the inhibition at 0.3 µM is 12% and the Ki was 1090 nM. The inhibition at 1 µM (1 μM test compound) was 51%. Also, the inhibition at 3 µM (3 μM test compound) amounted to 80%.

For the compound `CCOC(=O)C1CCC(N(C)C(=O)CCC(C2CCCCC2)N2Cc3cc(Oc4ccccc4)ncc3N=C2N)CC1` (centres unmarked) [Compound 17], the inhibition at 0.3 µM was found to be 4% and affinity was put at a Ki of 222 nM. Besides, the inhibition at 1 µM (1 μM test compound) turned out to be 61%. For the same compound, the inhibition at 3 µM (3 μM test compound) was found to be 86%.

In the case of `CN(C(=O)CCC(C1CCCCC1)N1Cc2cc(Oc3ccccc3)ncc2N=C1N)C1CCC(C(=O)O)CC1` (centres unmarked) [Compound 18], the inhibition at 0.3 µM worked out at 119% and the Ki is 17 nM. In addition, the inhibition at 1 µM (1 μM test compound) was 121%. Also, the inhibition at 3 µM (3 μM test compound) was found to be 128%.

In the case of `CC(C)[C@H](CCC(=O)N(CCCO)C1CCCCC1)N1Cc2cc(Oc3ccccc3)ncc2N=C1N` [Compound 19], the inhibition at 0.3 µM was 88% and the Ki was 55 nM. The inhibition at 1 µM (1 μM test compound) amounted to 103%. Besides, where the note is “3 μM test compound”, the inhibition at 3 µM was found to be 104%.

As to `CC(C)C(CCC(=O)N(CCO)C1CCC(C(=O)O)CC1)N1Cc2cc(Oc3ccccc3)ncc2N=C1N` (centres unmarked) [Compound 20], the inhibition at 0.3 µM was 97% and the Ki was 13 nM. Where the note is “1 μM test compound”, the inhibition at 1 µM came out at 102%. Moreover, the inhibition at 3 µM (3 μM test compound) was determined as 104%.

Regarding `CC(C)[C@H](CCC(=O)N(CCO)C(C)C)N1Cc2cc(Oc3ccccc3)ncc2N=C1N` [Compound 21], the inhibition at 0.3 µM was determined as 51% and the Ki turned out to be 74 nM. Moreover, for the setting “1 μM test compound”, the inhibition at 1 µM is 83%. The inhibition at 3 µM (3 μM test compound) was 97%.

`CN(C(=O)CCC(CCO)N1Cc2cc(Oc3ccccc3)ncc2N=C1N)C1CCCCC1` (centres unmarked) [Compound 22]: the inhibition at 0.3 µM worked out at 0% and the Ki was found to be 173 nM. Further, the inhibition at 1 µM (1 μM test compound) was found to be 61%. Moreover, under “3 μM test compound”, the inhibition at 3 µM is 93%.

In the case of `COCCC(CCC(=O)N(C)C1CCCCC1)N1Cc2cc(Oc3ccccc3)ncc2N=C1N` (centres unmarked) [Compound 23], the inhibition at 0.3 µM was 32% and the Ki amounted to 151 nM. Also, under “1 μM test compound”, the inhibition at 1 µM came out at 86%. Besides, for the setting “3 μM test compound”, the inhibition at 3 µM was 103%.

In the case of `CC(C)OCCC(CCC(=O)N(C)C1CCCCC1)N1Cc2cc(Oc3ccccc3)ncc2N=C1N` (centres unmarked) [Compound 24], the inhibition at 0.3 µM turned out to be 40% and the affinity, expressed as Ki, was 234 nM. For the setting “1 μM test compound”, the inhibition at 1 µM is 71%. Also, the inhibition at 3 µM (3 μM test compound) stood at 103%.

As for `CN(C(=O)CCC(C1CCOCC1)N1Cc2cc(Oc3ccccc3)ncc2N=C1N)C1CCC(C(=O)O)CC1` (centres unmarked) [Compound 26], the inhibition at 0.3 µM came out at 110% and the Ki amounted to 22 nM. Moreover, the inhibition at 1 µM (1 μM test compound) stood at 124%. The inhibition at 3 µM (3 μM test compound) came to 124%.

For `CCOC(=O)C1CCC(N(C)C(=O)CCC(C2CCOCC2)N2Cc3cc(Oc4ccccc4)ncc3N=C2N)CC1` (centres unmarked) [Compound 27], the inhibition at 0.3 µM was determined as 16% and the Ki came to 193 nM. Further, the inhibition at 1 µM (1 μM test compound) was 96%. Besides, the inhibition at 3 µM (3 μM test compound) is 110%.

In the case of `COC(=O)[C@@H](CO)NC(=O)CC[C@@H](C(C)C)N1Cc2cc(Oc3ccccc3)ncc2N=C1N` [Compound 28], the inhibition at 0.3 µM was 116% and the Ki was found to be 17 nM. Moreover, the inhibition at 1 µM (1 μM test compound) was found to be 124%. Further, the inhibition at 3 µM (3 μM test compound) was 128%.

With `CC(C)[C@H](CO)NC(=O)CC[C@@H](C(C)C)N1Cc2cc(Oc3ccccc3)ncc2N=C1N` [Compound 29], the “% Inhibition (FS) @ 0.3 μM” value stood at 93% and the Ki stood at 31 nM. Moreover, for the setting “1 μM test compound”, the inhibition at 1 µM was found to be 115%. Besides, the inhibition at 3 µM (3 μM test compound) was 119%.

The record behind these values is patent US7531545B2, “2-amino-3,4-dihydro-pyrido[3,4-d]pyrimidine derivatives useful as inhibitors of β-secretase (BACE)” (Janssen Pharmaceutica, N.V., priority 2005, dated 2009).
